Values joined by “and” are separate entries in the source; they are usually repeats but may differ in a detail not shown here. Equal entries are not always repeated. Inconclusive results and toxic doses are left out.
Tested on: BDF1 mice, P388 leukemia ip, median survival T/C
Assay: NCI In Vivo Anticancer Drug Screen. Data for tumor model P388 Leukemia (intraperitoneal) in B6D2F1 (BDF1) mice
Conditions: endpoint: median survival time, higher = longer survival
How it was run: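 T/C = treated-group survival ÷ vehicle-control survival; tumour transplanted into mice before dosing.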

[1] = dose: 50.0 mg/kg/injection, schedule: Q01DX009 (ip), vehicle: Klucel (hydroxypropylcellulose) (HPC)
[2] = dose: 100.0 mg/kg/injection, schedule: Q01DX009 (ip), vehicle: Klucel (hydroxypropylcellulose) (HPC)
[3] = dose: 200.0 mg/kg/injection, schedule: Q01DX009 (ip), vehicle: Klucel (hydroxypropylcellulose) (HPC)
[4] = dose: 12.5 mg/kg/injection, schedule: Q01DX009 (ip), vehicle: Klucel (hydroxypropylcellulose) (HPC)
[5] = dose: 25.0 mg/kg/injection, schedule: Q01DX009 (ip), vehicle: Klucel (hydroxypropylcellulose) (HPC)
[6] = dose: 50.0 mg/kg/injection, schedule: Q04DX003 (ip), vehicle: Klucel (hydroxypropylcellulose) (HPC)
[7] = dose: 100.0 mg/kg/injection, schedule: Q04DX003 (ip), vehicle: Klucel (hydroxypropylcellulose) (HPC)
[8] = dose: 200.0 mg/kg/injection, schedule: Q04DX003 (ip), vehicle: Klucel (hydroxypropylcellulose) (HPC)
[9] = dose: 50.0 mg/kg/injection, schedule: Q01DX009 (ip), vehicle: saline with Tween-80
[10] = dose: 100.0 mg/kg/injection, schedule: Q01DX009 (ip), vehicle: saline with Tween-80
[11] = dose: 200.0 mg/kg/injection, schedule: Q01DX009 (ip), vehicle: saline with Tween-80
[12] = dose: 100.0 mg/kg/injection, schedule: Q04DX003 (ip), vehicle: saline
[13] = dose: 200.0 mg/kg/injection, schedule: Q04DX003 (ip), vehicle: saline
[14] = dose: 400.0 mg/kg/injection, schedule: Q04DX003 (ip), vehicle: saline
[15] = dose: 50.0 mg/kg/injection, schedule: Q01DX009 (ip), vehicle: other
[16] = dose: 100.0 mg/kg/injection, schedule: Q01DX009 (ip), vehicle: other
[17] = dose: 200.0 mg/kg/injection, schedule: Q01DX009 (ip), vehicle: other
[18] = dose: 400.0 mg/kg/injection, schedule: Q01DX009 (ip), vehicle: other

## COC(=O)C(c1ccccc1)C(CC(=O)c1ccccc1)c1ccccc1 (stereo not given)
[1]
  T/C: 86 % of control
[2]
  T/C: 89 % of control and 99 % of control
[3]
  T/C: 92 % of control and 101 % of control
dose: 400.0 mg/kg/injection, schedule: Q01DX009 (ip), vehicle: Klucel (hydroxypropylcellulose) (HPC)
  T/C: 97 % of control

## O=C(CCCN1CCC(O)(c2cccc(C(F)(F)F)c2)CC1)c1ccc(F)cc1
[4]
  T/C: 120 % of control
dose: 12.5 mg/kg/injection, schedule: Q04DX003 (ip), vehicle: Klucel (hydroxypropylcellulose) (HPC)
  T/C: 112 % of control
dose: 18.75 mg/kg/injection, schedule: Q04DX003 (ip), vehicle: Klucel (hydroxypropylcellulose) (HPC)
  T/C: 96 % of control
[5]
  T/C: 114 % of control
dose: 25.0 mg/kg/injection, schedule: Q04DX003 (ip), vehicle: Klucel (hydroxypropylcellulose) (HPC)
  T/C: 122 % of control
[1]
  T/C: 117 % of control
[6]
  T/C: 121 % of control
dose: 150.0 mg/kg/injection, schedule: Q04DX003 (ip), vehicle: Klucel (hydroxypropylcellulose) (HPC)
  T/C: 96 % of control

## CCC1CN2CCc3cc(O)c(O)cc3C2CC1CC1NCCc2c1[nH]c1ccc(O)cc21 (stereo not given)
dose: 1.0 mg/kg/injection, schedule: Q01DX009 (ip), vehicle: Klucel (hydroxypropylcellulose) (HPC)
  T/C: 161 % of control
dose: 2.0 mg/kg/injection, schedule: Q01DX009 (ip), vehicle: Klucel (hydroxypropylcellulose) (HPC)
  T/C: 163 % of control

## NC(=S)N/N=C/c1c[nH]c2ccccc12
[7]
  T/C: 100 % of control
[8]
  T/C: 113 % of control
dose: 400.0 mg/kg/injection, schedule: Q04DX003 (ip), vehicle: Klucel (hydroxypropylcellulose) (HPC)
  T/C: 104 % of control

## COC(=O)CC12CC3(C)CC(C)(C1)CC(CC(=O)OC)(C3)C2
[9]
  T/C: 102 % of control
[10]
  T/C: 102 % of control
[11]
  T/C: 117 % of control

## CC(=O)OCC(CO)(CO)CO
[12]
  T/C: 100 % of control
[13]
  T/C: 100 % of control
[14]
  T/C: 100 % of control

## Nc1[nH]c(=O)ncc1[N+](=O)[O-]
[9]
  T/C: 102 % of control
[10]
  T/C: 118 % of control

## O=C(Nc1cc(Cl)cc(Cl)c1)C(Cl)Cl
dose: 50.0 mg/kg/injection, schedule: Q01DX010 (ip), vehicle: carboxymethylcellulose (CMC)
  T/C: 95 % of control
dose: 100.0 mg/kg/injection, schedule: Q01DX010 (ip), vehicle: carboxymethylcellulose (CMC)
  T/C: 110 % of control
dose: 200.0 mg/kg/injection, schedule: Q01DX010 (ip), vehicle: carboxymethylcellulose (CMC)
  T/C: 105 % of control

## CSc1cccc(NC(=O)OCCOc2ccc(Br)cc2)c1
[4]
  T/C: 109 % of control
[5]
  T/C: 105 % of control
[1]
  T/C: 102 % of control

## COc1ccc2nccc(C=O)c2c1
[10]
  T/C: 116 % of control
[11]
  T/C: 114 % of control
dose: 400.0 mg/kg/injection, schedule: Q01DX009 (ip), vehicle: saline with Tween-80
  T/C: 117 % of control

## CC1=C2CC(C)(C)/C=C\C(=O)/C(C)=C\C3=CC(C)(O)CC3(O2)C1=O (stereo not given)
dose: 0.16 mg/kg/injection, schedule: Q01DX009 (ip), vehicle: saline + alcohol
  T/C: 93 % of control
dose: 0.31 mg/kg/injection, schedule: Q01DX009 (ip), vehicle: saline + alcohol
  T/C: 118 % of control
dose: 0.62 mg/kg/injection, schedule: Q01DX009 (ip), vehicle: saline + alcohol
  T/C: 120 % of control
dose: 1.25 mg/kg/injection, schedule: Q01DX009 (ip), vehicle: saline + alcohol
  T/C: 118 % of control
dose: 10.0 mg/kg/injection, schedule: Q01DX009 (ip), vehicle: saline + alcohol
  T/C: 154 % of control

## CC(=O)OCc1c(COC(C)=O)c(-c2ccc(Cl)cc2)n2c1CCC2
[4]
  T/C: 119 % of control
[5]
  T/C: 123 % of control
[1]
  T/C: 98 % of control

## CNC(=S)N(C)C
dose: 50.0 mg/kg/injection, schedule: Q01DX001 (ip), vehicle: saline
  T/C: 95 % of control
dose: 100.0 mg/kg/injection, schedule: Q01DX001 (ip), vehicle: saline
  T/C: 103 % of control and 104 % of control
dose: 200.0 mg/kg/injection, schedule: Q01DX001 (ip), vehicle: saline
  T/C: 95 % of control and 104 % of control
dose: 400.0 mg/kg/injection, schedule: Q01DX001 (ip), vehicle: saline
  T/C: 91 % of control

## CCCCCCCCCCCC1CCCC(C)N1 (stereo not given)
[12]
  T/C: 100 % of control
[13]
  T/C: 95 % of control
[14]
  T/C: 91 % of control and 95 % of control

## Cc1cc(O)c2c(c1)OC1(C)CCC3C(C)(C)CCCC34COC2C14 (stereo not given)
[15]
  T/C: 109 % of control
[16]
  T/C: 114 % of control
[17]
  T/C: 92 % of control and 110 % of control
[18]
  T/C: 101 % of control

## CCCCCCCCCCCC[N+](C)(C)Cc1ccccc1
dose: 0.43 mg/kg/injection, schedule: Q04DX003 (ip), vehicle: saline
  T/C: 90 % of control
dose: 0.78 mg/kg/injection, schedule: Q01DX009 (ip), vehicle: saline
  T/C: 109 % of control
dose: 0.87 mg/kg/injection, schedule: Q04DX003 (ip), vehicle: saline
  T/C: 100 % of control
dose: 1.56 mg/kg/injection, schedule: Q01DX009 (ip), vehicle: saline
  T/C: 109 % of control
dose: 1.75 mg/kg/injection, schedule: Q04DX003 (ip), vehicle: saline
  T/C: 100 % of control
dose: 2.05 mg/kg/injection, schedule: Q01DX009 (ip), vehicle: saline
  T/C: 161 % of control
dose: 3.5 mg/kg/injection, schedule: Q04DX003 (ip), vehicle: saline
  T/C: 109 % of control

## CCCCCCCC(=O)Nc1c(C)cccc1C
dose: 100.0 mg/kg/injection, schedule: Q04DX003 (ip), vehicle: saline with Tween-80
  T/C: 100 % of control
dose: 200.0 mg/kg/injection, schedule: Q04DX003 (ip), vehicle: saline with Tween-80
  T/C: 100 % of control
dose: 400.0 mg/kg/injection, schedule: Q04DX003 (ip), vehicle: saline with Tween-80
  T/C: 95 % of control

## O=C(NNc1ccccc1)c1ccccc1
[1]
  T/C: 105 % of control
[6]
  T/C: 109 % of control
[2]
  T/C: 105 % of control
[7]
  T/C: 104 % of control
[3]
  T/C: 120 % of control
[8]
  T/C: 100 % of control

## COC1C=COC2(C)Oc3c(C)c(O)c4c(c3C2=O)/C(=N/C2CCC(O)OC2C)C=C(NC(=O)/C(C)=C\C(=O)C2CC2C(O)C(C)C(O)C(C)C(OC(C)=O)C1C)C4=O (stereo not given)
dose: 4.6 mg/kg/injection, schedule: Q01DX009 (ip), vehicle: saline with Tween-80
  T/C: 101 % of control
dose: 9.25 mg/kg/injection, schedule: Q01DX009 (ip), vehicle: saline with Tween-80
  T/C: 105 % of control
dose: 18.5 mg/kg/injection, schedule: Q01DX009 (ip), vehicle: saline with Tween-80
  T/C: 89 % of control
dose: 37.0 mg/kg/injection, schedule: Q01DX009 (ip), vehicle: saline with Tween-80
  T/C: 101 % of control

## CC12CC[C]([Hg][I])(CC1)C2(C)C
dose: 3.13 mg/kg/injection, schedule: Q01DX009 (ip), vehicle: saline with Tween-80
  T/C: 121 % of control
dose: 6.25 mg/kg/injection, schedule: Q01DX009 (ip), vehicle: saline with Tween-80
  T/C: 121 % of control
dose: 12.5 mg/kg/injection, schedule: Q01DX009 (ip), vehicle: saline with Tween-80
  T/C: 114 % of control

## CC(=O)N(CCN(Cc1ccc(Oc2ccc([N+](=O)[O-])cc2[N+](=O)[O-])cc1)C(C)=O)CCN(Cc1ccc(Oc2ccc([N+](=O)[O-])cc2[N+](=O)[O-])cc1)C(C)=O
dose: 25.0 mg/kg/injection, schedule: Q01DX009 (ip), vehicle: other
  T/C: 94 % of control
[15]
  T/C: 103 % of control
[16]
  T/C: 100 % of control
[17]
  T/C: 94 % of control
[18]
  T/C: 103 % of control

## FC(F)(F)c1cccc(-c2nc3nc(Cl)c(Cl)nc3[nH]2)c1
dose: 25.0 mg/kg/injection, schedule: Q01DX009 (ip), vehicle: saline with Tween-80
  T/C: 99 % of control
[9]
  T/C: 94 % of control
dose: 50.0 mg/kg/injection, schedule: Q04DX003 (ip), vehicle: saline with Tween-80
  T/C: 108 % of control
[10]
  T/C: 103 % of control
